Source: US20260125371A1, “METHOD FOR INHIBITING CLOSTRIDIOIDES DIFFICILE SPORE GERMINATION” (UNIVERSITY OF NOTRE DAME DU LAC, priority 2022, published 2026)
Where two headings read alike, the source gives them in different places.

Legend:
[1] = system: THP-1 cells; test: Lactate dehydrogenase (LDH) cytotoxicity assay; assay type: cell-based, human; settings: Homo sapiens, THP-1 cells
[2] = system: C. difficile strains; settings: cited from earlier work
[3] = system: S. haemolyticus ATCC 29970; settings: cited from earlier work
[4] = system: S. oralis ATCC 9811; settings: cited from earlier work
[5] = system: B. cereus ATCC 13061; settings: cited from earlier work
[6] = system: B. licheniformis ATCC 12759; settings: cited from earlier work
[7] = system: Fusobacterium nucleatum HM-992; settings: cited from earlier work
[8] = system: Lactobacillus gasseri HM-644; settings: cited from earlier work
[9] = system: Veillonella sp. HM-49; settings: cited from earlier work
[10] = system: K. pneumoniae ATCC700603; settings: cited from earlier work
[11] = system: P. aeruginosa ATCC27853; settings: cited from earlier work
[12] = system: E. coli ATCC25922; settings: cited from earlier work
[13] = system: Gram-negative bacteria; settings: organisms of Table 2; data from earlier publication; cited from earlier work
[14] = C. difficile strains of Table 4

FC(F)(F)c1ccc(Oc2ccc(-c3noc(-c4ccc5[nH]ccc5c4)n3)cc2)cc1 [Compound 1]
4 µg/mL: IMIC50 (101 strains) ([2]; 101 C. difficile strains)
no activity: activity against Gram-negative organisms [13]
>128 mg/L: MIC [8] | MIC [9] | MIC [10] | MIC [11] | MIC [12]
1 mg/L: MIC ([2]; C. difficile NR49294) | MIC ([2]; strain ATCC43598) | MIC ([2]; strain NR49294) | MIC [7]
128 mg/L: MIC [4]
2 mg/L: MIC ([2]; C. difficile BAA-1803) | MIC ([2]; C. difficile NR49292) | MIC ([2]; C. difficile NR49302) | MIC ([2]; C. difficile NR49310) | MIC ([2]; C. difficile NR49318) | MIC ([2]; strain BAA-1803) | MIC ([2]; strain BAA-1804) | MIC ([2]; strain BAA-1812) | MIC ([2]; strain NR49292) | MIC ([2]; strain NR49302) | MIC ([2]; strain NR49310) | MIC ([2]; strain NR49318) | MIC ([2]; strain NR-32895) | MIC ([2]; strain NR-32896) | MIC ([2]; strain RMA27081)
8 mg/L: MIC90 (101 strains) ([2]; 101 C. difficile strains) | MIC90 [2, 14] | MIC ([2]; strain HM-88) | MIC ([2]; strain HM-89) | MIC ([2]; strain HM-745) | MIC ([2]; strain HM-747) | MIC ([2]; strain NR-13428) | MIC ([2]; strain NR-13429) | MIC ([2]; strain NR-13430) | MIC ([2]; strain NR-13436) | MIC ([2]; strain NR-13437) | MIC ([2]; strain NR-32885) | MIC ([2]; strain NR-32887) | MIC ([2]; strain NR-32888) | MIC ([2]; strain NR-32891) | MIC ([2]; strain NR-32897) | MIC ([2]; strain NR-32900) | MIC ([2]; strain NR-32903) | MIC ([2]; strain NR-49280) | MIC ([2]; strain NR-49282) | MIC ([2]; strain NR-49283) | MIC ([2]; strain NR-49284) | MIC ([2]; strain NR-49289) | MIC ([2]; strain NR-49290) | MIC ([2]; strain NR-49291) | MIC ([2]; strain NR-49308) | MIC ([2]; strain NR-49312) | MIC ([2]; strain NR-49317) | MIC ([2]; strain NR-49319) | MIC ([2]; strain NR-49321) | MIC ([2]; strain NR-49323) | MIC ([2]; strain NR-49324) | MIC ([2]; strain NR-49325) | MIC [3] | MIC [6]
4 mg/L: MIC ([2]; C. difficile 23828, resistant to FDX) | MIC ([2]; C. difficile 24531, resistant to VAN) | MIC ([2]; C. difficile 26675, resistant to MTZ) | MIC ([2]; C. difficile BAA-1870) | MIC ([2]; C. difficile NR49305) | MIC50 [2, 14] | MIC ([2]; strain BAA-1801) | MIC ([2]; strain BAA-1814) | MIC ([2]; strain BAA-1870) | MIC ([2]; strain HM-746) | MIC ([2]; strain NR49305) | MIC ([2]; strain NR-13427) | MIC ([2]; strain NR-13431) | MIC ([2]; strain NR-13433) | MIC ([2]; strain NR-13434) | MIC ([2]; strain NR-13435) | MIC ([2]; strain NR-13438) | MIC ([2]; strain NR-13553) | MIC ([2]; strain NR-32882) | MIC ([2]; strain NR-32883) | MIC ([2]; strain NR-32884) | MIC ([2]; strain NR-32886) | MIC ([2]; strain NR-32889) | MIC ([2]; strain NR-32890) | MIC ([2]; strain NR-32892) | MIC ([2]; strain NR-32904) | MIC ([2]; strain NR-49277) | MIC ([2]; strain NR-49278) | MIC ([2]; strain NR-49279) | MIC ([2]; strain NR-49281) | MIC ([2]; strain NR-49285) | MIC ([2]; strain NR-49286) | MIC ([2]; strain NR-49287) | MIC ([2]; strain NR-49288) | MIC ([2]; strain NR-49293) | MIC ([2]; strain NR-49295) | MIC ([2]; strain NR-49296) | MIC ([2]; strain NR-49297) | MIC ([2]; strain NR-49298) | MIC ([2]; strain NR-49299) | MIC ([2]; strain NR-49300) | MIC ([2]; strain NR-49301) | MIC ([2]; strain NR-49303) | MIC ([2]; strain NR-49304) | MIC ([2]; strain NR-49306) | MIC ([2]; strain NR-49307) | MIC ([2]; strain NR-49309) | MIC ([2]; strain NR-49311) | MIC ([2]; strain NR-49313) | MIC ([2]; strain NR-49314) | MIC ([2]; strain NR-49315) | MIC ([2]; strain NR-49316) | MIC ([2]; strain NR-49320) | MIC ([2]; strain NR-49326) | MIC ([2]; strain NR-49327) | MIC ([2]; strain NR-49328) | MIC ([2]; strain NR-49329) | MIC ([2]; strain RMA23691) | MIC ([2]; strain RMA23828) | MIC ([2]; strain RMA24531) | MIC ([2]; strain RMA24923) | MIC ([2]; strain RMA26675) | MIC ([2]; strain RMA27173)
16 mg/L: MIC [5]
69 ± 6 mg/L: IC50 ([1]; 24 h, read-out: LDH (IC50))
> 50 mg/L: IC50 ([1]; read-out: toxicity IC50 (LDH assay))
